Read-outs that look alike come from different tables or passages of the source.

The subject of series [1] is rat heart. Kind of series: Coronary blood flow (PCS2A): isolated perfused heart. To be noted: Rattus norvegicus.
For series [2], the system named is male Swiss-Webster mice. Nature of the series: Analgesic evaluation: antiwrithing (AW) test, acetic acid. The class given is in vivo. To be noted: Mus musculus, sc, read-out: AW ED50. On the procedure: The antiwrithing (AW) test provides preliminary assessment of compounds with potential analgesic activity. The test is performed in male Swiss-Webster mice. Compounds are administered subcutaneously in aqueous 0.2% methylcellulose or other appropriate vehicles in volumes of 10 ml/kg. Dosages represent activity moiety.
Acetic acid (0.6%, 10 ml/kg) is injected intraperitroneally 20 minutes after administration of the adenosine agonist. Writhing movements are counted for five minutes starting seven minutes after the acetic acid injection. Writhing is defined as abdominal constriction and stretching of the body and hind legs with concave arching of the back. […] EDso values are calculated by nonlinear regression analysis.
Background: Writhing tests count abdominal constrictions after an irritant is injected.

The subject of series [3] is Long-Evans rats or squirrel-monkeys. Kind of series: Antipsychotic lever-push shock avoidance protocol (SIDR). The class given is in vivo. Conditions: Rattus norvegicus, read-out: SIDR ED50. On the procedure:
Representative compounds of the invention (identified in the Examples) were also tested for antipsychotic activity according to the following protocol (SIDR). […] Mature male Long-Evans rats or squirrel-monkeys are conditioned to push a lever in order to avoid a painful electric footshock. If the animal fails to push the lever, he receives a shock every ten seconds until the lever is pushed. Shocks can be terminated by pushing the lever. Thereafter, as long as the lever is pushed at least once every 20 seconds, there will be no shock. Each animal acts as its own control; one weekly session is used to establish baseline behavior and another session later in the week is used as a drug session. Once patterns of avoidance are established, the effects of standard and unknown compounds are studied. All events are electronically programmed and the response to these events counted or used as feedback to the program.

Series [4] deals with Swiss-Webster male mice. Nature of the series: Mouse Activity and Screen Test (MAST): screen test (ST). The format is in vivo. To be noted: lowest dose at which an A rating (60-100%) is achieved, screen test; intraperitoneally. As to the method:
Treatments are administered intraperitoneally one hour prior to testing. […] Compounds are dissolved or suspended in 0.2% Methocel. Control animals are injected with Methocel.
The compounds are identified in the Examples.

Series [5] relates to Swiss-Webster male mice. Kind of series: Mouse Activity and Screen Test (MAST): inhibition of spontaneous locomotion (LI). The format is in vivo. Conditions: for Inhibition of mouse locomotor activity: one hour prior to testing, vs vehicle.

As for `OC[C@H]1O[C@@H](n2cnc3c(NCC(c4ccccc4)c4ccccc4)ncnc32)[C@H](O)[C@@H]1O` [Example 1, N^6-(2,2-Diphenylethyl)adenosine], in series [1] (read-out: CF), the activation at 0.001 µM is 7%, the activation at 0.003 µM stood at 15%, the activation at 0.01 µM was 32% and the activation at 0.1 µM was 43%. Moreover, the activation at 1 µM in series [1] (read-out: CF) worked out at 50%. Moreover, the EC50 in series [1] (read-out: PCS2A CF ED50) stood at 1 µM. Further, the EC50 in series [1] (read-out: PCS2A HR ED50) was 2 µM. Also, in series [2], the ED50 was determined as 6.9 mg/kg. Also, the ED50 in series [3] is 2.5 mg/kg. In addition, the “MAST ST LAD” value in series [4] is reported as above 100 mg/kg. The “Inhibition of mouse locomotor activity” value in series [5] (10 mg/kg intraperitoneally) is listed as 92%. For the same compound, the “Inhibition of mouse locomotor activity” value in series [5] (30 mg/kg intraperitoneally) came to 93%. In addition, in series [5] (100 mg/kg intraperitoneally), the “Inhibition of mouse locomotor activity” value is given as 94%. The minimal effective dose in series [5] (Mus musculus, ip, read-out: MAST LI LAD) stood at 3 mg/kg.

For orientation: ED50 means the dose that gives a 50% effect, or the effect in half of the subjects.

Values taken from patent EP0139358B1, “N6-substituted diarylalkyl adenosines, processes for their production and pharmaceutical compositions comprising the same” (priority 1983, dated 1985).
